Ends that are not written are not given here.
Key:
metastatic melanoma = details: cited from earlier work
[1] = tested on: human non-small cell lung cancer (NSCLC) cells; details: subcutaneous, 1 or 10 mg per day; nude mice inoculated with human NSCLC cells; cited from earlier work
[2] = tested on: stage IV melanoma characterized by distant unresectable metastases; test: Phase II clinical trial, tumor response by RECIST criteria; type: in vivo, human; details: preliminary analysis on 142 patients; higher doses of Tα1
Procedure: Trial Design phase II, randomized, stratified, open-study testing different doses of Tα1 in association with DTIC and IFNα, as first line therapy for stage IV melanoma patients characterized by distant unresectable metastases (AJCC; Journal of Clinical Oncology 2001, 19: 3635-3648) without brain metastases. The primary study end-point was tumor response, and the following combination composition were used: • DTIC (800 mg/m^2)+IFNα (3 MIU)+Tα1 (1.6 mg) (97 pts); • DTIC (800 mg/m^2)+IFNα (3 MIU)+Tα1 (3.2 mg) (97 pts); • DTIC (800 mg/m^2)+Tα1 (3.2 mg) (98 pts); • DTIC (800 mg/m^2)+IFNα (3 MIU) (94 pts);
The five groups were analyzed independently one another within the so-called “pick the winner” strategy.
Methods: Recycling every 28 days, patients were administered DTIC (800 mg/m^2) i.v. at day 1, Tα1 (1.6, 3.2 or 6.4 mg) s.c. at days 8-11 and 15-18, and IFNα (3 MIU) s.c. at day 11 and 18. Clinical response was evaluated every two cycles according to RECIST criteria (New Guidelines to Evaluate the Response to Treatment in Solid Tumors; Journal of the National Cancer Institute, 2000. 92: 205-216) utilizing a central reader.
The randomized patients were stratified according to the disease site: M1a, M1b or M1c level.
1) Patients with cutaneous, subcutaneous and/or limphnodal metastases with normal serum LDH value (from 96 to 460 U/L) were classified as M1a. […]

lymphosarcoma cells = details: BALB/c mice; cited from earlier work
[3] = DTIC alone, metastatic melanoma

| Molecule | actual overall responses (metastatic melanoma; DTIC alone, metastatic melanoma, J Clin Oncol and ASCO proceedings 2004) | duration of responses (short-lived) (metastatic melanoma; [3]) | effect of responses on patients' overall survival (metastatic melanoma; [3]) | DTIC efficacy (metastatic melanoma; literature population similar to 16% M1a, 25% M1b, 59% M1c) | tumor volume [1] | dose-response effect on tumor response [2] | liver and lung metastases (lymphosarcoma cells) | local sarcoma growth (lymphosarcoma cells) |
| --- | --- | --- | --- | --- | --- | --- | --- | --- |
| CN(C)/N=N/c1[nH]cnc1C(N)=O [DTIC, Dacarbazine] | 5.5-6.8% | three to six | no evidence that these responses have any effect on the patients' overall survival | 5% |  |  |  |  |
| thymosin alpha 1 (SDAAVDTSSEITTKDLKEKKEVVEEAEN; ends and bridges not checked; UniProt P06454 2-29, looked up) [a compound well known in the medical field] |  |  |  |  | significantly decreased | clear dose-response effect | significantly reduced | significantly reduced |

— patent publication US20090186000A1, “USE OF THYMOSIN ALPHA 1 FOR PREPARING A MEDICAMENT FOR THE TREATMENT OF STAGE IV MALIGNANT MELANOMA” (SIGMA-TAU INDUSTRIE FARMACEUTICHE RIUNITE S.P.A., priority 2006, published 2009)
